In PMC7044277 (Nature Communications, 2020):
Where “and” joins values, the source holds several entries; their conditions need not be identical. Equal values may be shown once. Read-outs that look alike come from different tables or passages of the source.

How the values were obtained:
[1] = target: DRD2 (D2 long receptor) wild-type (Homo sapiens, UniProt P14416); test: Radioligand competition binding, [3H]-N-methylspiperone, HEK293T membranes
[2] = target: DRD3 wild-type (Homo sapiens, UniProt P35462); test: Radioligand competition binding, [3H]-N-methylspiperone
DRD3 wild-type, sequence (P35462 whole entry): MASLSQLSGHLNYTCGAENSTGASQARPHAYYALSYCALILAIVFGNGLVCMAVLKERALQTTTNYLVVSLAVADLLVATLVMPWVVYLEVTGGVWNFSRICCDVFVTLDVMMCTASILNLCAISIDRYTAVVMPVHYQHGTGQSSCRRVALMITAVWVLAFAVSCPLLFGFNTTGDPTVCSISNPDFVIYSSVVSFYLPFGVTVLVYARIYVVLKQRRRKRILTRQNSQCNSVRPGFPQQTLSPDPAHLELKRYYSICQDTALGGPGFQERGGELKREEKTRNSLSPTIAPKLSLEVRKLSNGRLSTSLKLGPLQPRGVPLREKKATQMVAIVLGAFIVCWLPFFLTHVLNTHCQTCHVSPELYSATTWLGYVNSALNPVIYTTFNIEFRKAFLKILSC

[3] = target: T1, DRD4 (D4.4 variant) wild-type (Homo sapiens, UniProt P21917); test: as above; conditions: DRD4; [3H]-methylspiperone (0.8-1.0 nM); read-out: Ki
T1 sequence (P21917 1-419): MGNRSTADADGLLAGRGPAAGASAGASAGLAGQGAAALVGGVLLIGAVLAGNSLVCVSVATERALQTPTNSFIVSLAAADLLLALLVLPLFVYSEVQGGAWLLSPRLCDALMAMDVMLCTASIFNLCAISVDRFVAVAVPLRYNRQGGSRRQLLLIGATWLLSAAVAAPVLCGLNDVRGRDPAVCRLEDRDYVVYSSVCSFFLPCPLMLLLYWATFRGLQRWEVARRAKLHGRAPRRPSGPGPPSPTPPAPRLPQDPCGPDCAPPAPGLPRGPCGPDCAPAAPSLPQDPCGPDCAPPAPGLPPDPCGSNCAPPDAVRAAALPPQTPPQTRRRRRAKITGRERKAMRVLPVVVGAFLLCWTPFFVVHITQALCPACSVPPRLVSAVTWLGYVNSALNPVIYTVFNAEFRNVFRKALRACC

[4] = target: T2, DRD3 F1063.28A (Homo sapiens, UniProt P35462, F106A); test: biochemical; type: binding
T2 sequence (P35462 whole entry F106A): as the sequence (P35462 whole entry) above, with F106A counted along it

[5] = target: T3, DRD2 (D2 long receptor) (Homo sapiens, UniProt P14416); test: Gαi/o-mediated cAMP inhibition (GloSensor split-luciferase cAMP reporter), HEK293T; type: cell-based; conditions: for response, Fig_S11d dose-response source data: replicate values;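 on all read-outs here: compounds applied 15 min at room temperature, then luciferin plus 400 nM isoproterenol to raise cAMP through endogenous β2-adrenergic receptors, luminescence read 15 min later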
T3 sequence (P14416 whole entry): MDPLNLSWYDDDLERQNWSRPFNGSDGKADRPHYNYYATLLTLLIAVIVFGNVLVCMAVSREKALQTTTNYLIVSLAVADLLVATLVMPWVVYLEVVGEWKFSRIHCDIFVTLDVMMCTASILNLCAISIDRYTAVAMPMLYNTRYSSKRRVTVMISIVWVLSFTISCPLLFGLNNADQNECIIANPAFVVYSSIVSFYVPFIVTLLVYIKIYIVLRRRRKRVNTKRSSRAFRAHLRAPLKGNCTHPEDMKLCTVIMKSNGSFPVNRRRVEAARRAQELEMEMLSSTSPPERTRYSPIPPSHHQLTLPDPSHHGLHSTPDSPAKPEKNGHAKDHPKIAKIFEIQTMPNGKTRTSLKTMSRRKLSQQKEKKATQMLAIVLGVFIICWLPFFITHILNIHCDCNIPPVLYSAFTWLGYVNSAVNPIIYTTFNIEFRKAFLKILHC

[6] = target: T4, DRD4 (D4.4 variant) (Homo sapiens, UniProt P21917); test: Gαi/o-mediated cAMP inhibition (GloSensor); type: cell-based; conditions: DRD4; agonist, cAMP inhibition; read-out: EC50 ± SEM
T4 sequence (P21917 1-419): T1 sequence (P21917 1-419)

[7] = target: T5, DRD2 F1103.28L (Homo sapiens, UniProt P14416, F110L); test: Gαi/o-mediated cAMP inhibition (GloSensor), mutant; type: cell-based; conditions: DRD2 F1103.28L (b138 head prints DRD2 F1063.28L)
T5 construct: expressed in transfected cells; host or cells: HEK293T (ATCC CRL-11268)
T5 sequence (P14416 whole entry F110L): as the sequence (P14416 whole entry) above, with F110L counted along it

[8] = target: T3, DRD2 (D2 long receptor); test: β-arrestin2 recruitment (Tango), HTLA cells; type: cell-based
[9] = target: DRD3 (Homo sapiens, UniProt P35462); test: β-arrestin2 recruitment (Tango); type: cell-based; conditions: DRD3; Tango; read-out: EC50 ± SEM
DRD3, sequence (P35462 whole entry): as the sequence (P35462 whole entry) above

[10] = target: T4, DRD4 (D4.4 variant); test: β-arrestin2 recruitment (Tango); type: cell-based; conditions: DRD4; Tango; read-out: EC50 ± SEM
[11] = target: T5, DRD2 F1103.28L; test: β-arrestin2 recruitment (Tango), mutant; type: cell-based
[12] = target: T2, DRD3 F1063.28A; test: cell-based; type: cell-based; conditions: DRD3 F1063.28A; Tango; read-out: EC50 ± SEM
[13] = target: T6, DRD2 F1103.28A (Homo sapiens, UniProt P14416, F110A); type: binding; parameters: expressed in transfected cells; host or cells: HEK293T (ATCC CRL-11268)
T6 sequence (P14416 whole entry F110A): as the sequence (P14416 whole entry) above, with F110A counted along it

[14] = target: T6, DRD2 F1103.28A; test: Gαi/o-mediated cAMP inhibition (GloSensor), mutant; type: cell-based; parameters: expressed in transfected cells; host or cells: HEK293T (ATCC CRL-11268)
[15] = target: T6, DRD2 F1103.28A; test: β-arrestin2 recruitment (Tango), mutant; type: cell-based; parameters: expressed in transfected cells; host or cells: HEK293T (ATCC CRL-11268)

DRD2 (D2 long receptor) wild-type, sequence (P14416 whole entry): as the sequence (P14416 whole entry) above

## CCOc1cccc2cc(C(C)NCC3(O)CCCC3)oc12.Cl (racemic) [O4LE5]
[1]; DRD2, [3H]-methylspiperone (0.8-1.0 nM), read-out: Ki
  Ki: 9.55 µM
[1]; DRD2 wild-type
  pKi ± SEM: 5.02±0.07
[2]; DRD3, [3H]-methylspiperone (0.8-1.0 nM), read-out: Ki
  Ki: 1.02 µM
[2]; DRD3 wild-type
  pKi ± SEM: 5.99±0.02
[3]
  Ki: > 10 µM
[4]; DRD3 F1063.28A
  pKi ± SEM: 5.37±0.13
[4]; DRD3 F1063.28A, read-out: Ki
  Ki: 4.27 µM
[4]; DRD3 Phe106^3.28Ala vs wild-type DRD3
  affinity decreased, mutant vs wild type: 4.19 fold
[5]; DRD2, agonist, Gαi/o-mediated cAMP inhibition, read-out: EC50 ± SEM
  EC50: 0.0203 ± 0.00906 µM
[5]; DRD2, cAMP inhibition
  Emax relative to quinpirole response: 90.02%
[5]; Log[Drug] -6.52
  response, Fig_S11d dose-response source data: 89.8047
[5]; Log[Drug] -7
  response, Fig_S11d dose-response source data: 65.0385 and 57.9248 and 60.2207 and 80.9341 and 74.6312 and 79.279 and 82.9188 and 82.7948 and 77.3857
[5]; Log[Drug] -7.52
  response, Fig_S11d dose-response source data: 39.5571 and 33.4973 and 24.3511 and 57.6284 and 63.6471 and 63.1957 and 71.0585 and 72.7209 and 64.8058
[5]; Log[Drug] -8
  response, Fig_S11d dose-response source data: 9.5215 and 11.2717 and 13.7182 and 48.383 and 49.6202 and 44.9055 and 35.7008 and 48.9506 and 59.4463
[5]; Log[Drug] -8.52
  response, Fig_S11d dose-response source data: -3.6708 and -0.0387 and -1.4878 and 27.1503 and 28.8723 and 39.8732 and 29.7954 and 40.3159 and 28.6789
[5]; Log[Drug] -9
  response, Fig_S11d dose-response source data: 6.661 and 7.056 and -0.9609 and 40.0738 and 31.9486 and 25.4952 and 24.1382 and 31.3586 and 28.8029
[5]; Log[Drug] -9.52
  response, Fig_S11d dose-response source data: 12.3068 and -0.3586 and -16.1104 and 30.2934 and 20.4294 and 33.0687 and 10.7891 and 20.7389 and 17.29
[5]; Log[Drug] -10
  response, Fig_S11d dose-response source data: -16.468 and 1.297 and -13.024 and 16.0491 and 30.494 and 18.4566 and 11.0621 and 15.5283 and 8.9282
[5]; Log[Drug] -10.52
  response, Fig_S11d dose-response source data: -14.0967 and 4.779 and -14.8495 and 16.7012 and 24.0741 and 20.5632 and 2.204 and 13.0967 and 9.052
[5]; Log[Drug] -11
  response, Fig_S11d dose-response source data: -2.7111 and 12.7961 and -15.5834 and 17.8548 and 27.4178 and 14.9457 and -4.6938 and 9.499 and 12.5508
[5]; Log[Drug] -11.52
  response, Fig_S11d dose-response source data: -7.9428 and 7.113 and -8.1498 and 19.6269 and 38.218 and 27.7856 and 20.6149 and 38.3557 and 9.623
[5]; Log[Drug] -12
  response, Fig_S11d dose-response source data: -24.8425 and -18.4063 and -14.0215 and 7.974 and -7.6244 and -4.264 and -3.478 and -21.2934 and -10.4999
[6]
  EC50: > 10 µM
[7]
  EC50: > 10 µM
[8]
  response, Fig_S11e dose-response source data: 4.195 and 4.191
[8]; DRD2, Tango
  Emax relative to quinpirole response: 69.77%
[8]; DRD2, β-arrestin2 recruitment (Tango), read-out: EC50 ± SEM
  EC50: 0.591 ± 0.16 µM
[8]; Fig_S11e, Log[Drug] -6.52, replicate values
  response, Fig_S11e dose-response source data: 29.7819
[8]; Fig_S11e, Log[Drug] -7, replicate values
  response, Fig_S11e dose-response source data: 14.8195 and 15.4716 and 11.9245 and 14.4902 and 10.6077 and 13.3375 and 15.5705 and 13.1474 and 10.3991
[8]; Fig_S11e, Log[Drug] -7.52, replicate values
  response, Fig_S11e dose-response source data: 5.649 and 7.617 and 8.153 and 5.088 and 5.357 and 5.685 and 6.459 and 7.136 and 7.327
[8]; Fig_S11e, Log[Drug] -8, replicate values
  response, Fig_S11e dose-response source data: 4.53 and 4.924 and 7.437 and 4.448 and 4.588 and 4.761 and 4.942 and 5.222 and 4.354
[8]; Fig_S11e, Log[Drug] -8.52, replicate values
  response, Fig_S11e dose-response source data: 5.418 and 3.578 and 5.097 and 4.558 and 4.204 and 3.944 and 4.259 and 4.448
[8]; Fig_S11e, Log[Drug] -9, replicate values
  response, Fig_S11e dose-response source data: 5.551 and 4.294 and 3.766 and 4.187 and 3.973 and 4.022 and 3.996 and 4.409 and 5.115
[8]; Fig_S11e, Log[Drug] -9.52, replicate values
  response, Fig_S11e dose-response source data: 3.774 and 3.895 and 3.825 and 3.992 and 4.187 and 3.4742 and 3.994 and 4.11
[8]; Fig_S11e, Log[Drug] -10, replicate values
  response, Fig_S11e dose-response source data: 3.543 and 4.048 and 4.417 and 4.083 and 4.005 and 3.8893 and 4.472 and 4.295 and 4.703
[8]; Fig_S11e, Log[Drug] -10.52, replicate values
  response, Fig_S11e dose-response source data: 4.321 and 3.611 and 3.873 and 3.908 and 3.996 and 3.919 and 3.699 and 4.48 and 4.116
[8]; Fig_S11e, Log[Drug] -11, replicate values
  response, Fig_S11e dose-response source data: 3.51 and 3.391 and 4.782 and 4.294 and 4.024 and 3.997 and 3.756 and 4.401 and 4.222
[8]; Fig_S11e, Log[Drug] -11.52, replicate values
  response, Fig_S11e dose-response source data: 3.707 and 4 and 3.724 and 4.053 and 3.84 and 3.862 and 4.291 and 4.0833 and 3.6644
[8]; Fig_S11e, Log[Drug] -12, replicate values
  response, Fig_S11e dose-response source data: 4.3048 and 3.879 and 4.62 and 3.975 and 4.688 and 4.168 and 3.647 and 4.316 and 4.328
[9]
  EC50: > 10 µM
[10]
  EC50: > 10 µM
[11]
  EC50: > 10 µM
[12]
  EC50: > 10 µM
[13]; DRD2 F1103.28A
  pKi ± SEM: 6.03±0.14
[13]; DRD2 F1103.28A, read-out: Ki
  Ki: 0.93 µM
[13]; DRD2 Phe110^3.28Ala vs wild-type DRD2
  affinity increase (binding enhanced), mutant vs wild type: 10.27 fold
[14]
  EC50: 50 ± 40 pM
  Emax relative to quinpirole response: 13.66%
[15]
  EC50: > 10 µM
